What was measured:
[1] = target: T1, Wee-1 kinase (Homo sapiens, UniProt P30291); assay: Inhibitory activity against Wee-1 kinase (Lanthra Screen Wee-1 kinase kit, Tracer 178); assay type: binding; settings: Wee-1 kinase 5 nM, Tracer 178 50 nM, 1 h room temperature
T1 construct: purchased Invitrogen
Method in brief: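 LanthaScreen binding format: Wee-1 kinase (5 nM final) with Eu-anti-GST antibody (2 nM final) and kinase Tracer 178 (50 nM final), compounds serially diluted in DMSO. 1 h at room temperature before reading. IC50 relative to DMSO control.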

[2] = tested on: HT29 cells; assay: Antiproliferative activity against HT29 cells (Cell Titer-Lumi, ATP content); assay type: cell-based; settings: Homo sapiens, HT-29, 72 after compound addition, read-out: HT-29 cells Anti-proliferative activity (IC50 for the inhibition against HT-29 cell growth)
Method in brief: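 3000 cells per well, allowed to adhere overnight, then exposed to a gradient dilution of compound for 72 (units as printed). Cellular ATP read by luminescence (Cell Titer-Lumi) as a growth measure; IC50 for growth inhibition calculated.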

T1 sequence (P30291 whole entry): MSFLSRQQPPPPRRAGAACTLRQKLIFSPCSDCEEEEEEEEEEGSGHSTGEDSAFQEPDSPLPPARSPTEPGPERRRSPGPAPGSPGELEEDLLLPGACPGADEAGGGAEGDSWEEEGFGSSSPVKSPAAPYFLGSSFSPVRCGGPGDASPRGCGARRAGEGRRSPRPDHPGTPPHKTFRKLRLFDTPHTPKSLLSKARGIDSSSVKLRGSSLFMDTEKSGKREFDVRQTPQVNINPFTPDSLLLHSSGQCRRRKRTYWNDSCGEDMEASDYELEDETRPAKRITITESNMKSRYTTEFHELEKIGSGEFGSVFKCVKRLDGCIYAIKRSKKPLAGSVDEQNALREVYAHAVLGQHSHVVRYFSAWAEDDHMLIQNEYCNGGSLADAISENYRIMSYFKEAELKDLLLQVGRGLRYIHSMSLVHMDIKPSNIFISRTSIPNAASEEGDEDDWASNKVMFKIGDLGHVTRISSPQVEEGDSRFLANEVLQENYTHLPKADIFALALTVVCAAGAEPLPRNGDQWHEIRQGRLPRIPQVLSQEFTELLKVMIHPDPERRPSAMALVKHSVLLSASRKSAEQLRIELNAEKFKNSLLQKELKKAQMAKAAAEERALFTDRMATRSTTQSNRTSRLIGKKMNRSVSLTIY

Structure (SMILES) | IC50 [1] [nM] | IC50 [2] [nM]
C=CCn1c(=O)c2cnc(Nc3ccc(C4(C)CCN(C)CC4)cc3)nc2n1-c1ccc(=O)n(C(C)C)n1 [Compound 201] | ≤ 30 | ≤ 1000
C=CCn1c(=O)c2cnc(Nc3ccc(C4(C)CCCNC4)cc3)nc2n1-c1ccc(=O)n(C(C)C)n1 (stereo not shown) [Compound 202] | ≤ 30 | ≤ 1000
C=CCn1c(=O)c2cnc(Nc3ccc(C4(C)CCCN(C)C4)cc3)nc2n1-c1ccc(=O)n(C(C)C)n1 (stereo not shown) [Compound 203] | ≤ 30 | ≤ 1000
C=CCn1c(=O)c2cnc(Nc3cccc(C4CCNCC4)c3)nc2n1-c1ccc(=O)n(C(C)C)n1 [Compound 204] | ≤ 30 | ≤ 1000
C=CCn1c(=O)c2cnc(Nc3cccc(C4CCN(C)CC4)c3)nc2n1-c1ccc(=O)n(C(C)C)n1 [Compound 205] | ≤ 30 | ≤ 1000
C=CCn1c(=O)c2cnc(Nc3cc(C)cc(C4CCNCC4)c3)nc2n1-c1ccc(=O)n(C(C)C)n1 [Compound 206] | ≤ 30 | ≤ 1000
C=CCn1c(=O)c2cnc(Nc3cc(C)cc(C4CCN(C)CC4)c3)nc2n1-c1ccc(=O)n(C(C)C)n1 [Compound 207] | ≤ 30 | ≤ 1000
C=CCn1c(=O)c2cnc(Nc3cc(F)cc(C4CCNCC4)c3)nc2n1-c1ccc(=O)n(C(C)C)n1 [Compound 208] | ≤ 30 | ≤ 1000
C=CCn1c(=O)c2cnc(Nc3cc(F)cc(C4CCN(C)CC4)c3)nc2n1-c1ccc(=O)n(C(C)C)n1 [Compound 209] | ≤ 30 | ≤ 1000
C=CCn1c(=O)c2cnc(Nc3cc(Cl)cc(C4CCNCC4)c3)nc2n1-c1ccc(=O)n(C(C)C)n1 [Compound 210] | ≤ 30 | ≤ 1000
C=CCn1c(=O)c2cnc(Nc3cc(Cl)cc(C4CCN(C)CC4)c3)nc2n1-c1ccc(=O)n(C(C)C)n1 [Compound 211] | ≤ 30 | ≤ 1000
C=CCn1c(=O)c2cnc(Nc3cc(OC)cc(C4CCNCC4)c3)nc2n1-c1ccc(=O)n(C(C)C)n1 [Compound 212] | ≤ 30 | ≤ 1000
C=CCn1c(=O)c2cnc(Nc3cc(OC)cc(C4CCN(C)CC4)c3)nc2n1-c1ccc(=O)n(C(C)C)n1 [Compound 213] | ≤ 30 | ≤ 1000
C=CCn1c(=O)c2cnc(Nc3ccc(CCN(C)C)cc3)nc2n1-c1ccc(=O)n(C(C)C)n1 [Compound 214] | ≤ 30 | ≤ 1000
C=CCn1c(=O)c2cnc(Nc3ccc(CCN(C)C)c(C)c3)nc2n1-c1ccc(=O)n(C(C)C)n1 [Compound 215] | ≤ 30 | ≤ 1000
C=CCn1c(=O)c2cnc(Nc3ccc(OCCN(C)C)cc3)nc2n1-c1ccc(=O)n(C(C)C)n1 [Compound 216] | ≤ 30 | ≤ 1000
C=CCn1c(=O)c2cnc(Nc3ccc(OCCN(C)C)c(C)c3)nc2n1-c1ccc(=O)n(C(C)C)n1 [Compound 217] | ≤ 30 | ≤ 1000
C=CCn1c(=O)c2cnc(Nc3ccc4cc(N5CCN(C)CC5)ccc4c3)nc2n1-c1ccc(=O)n(C(C)C)n1 [Compound 218] | ≤ 30 | ≤ 1000
C=CCn1c(=O)c2cnc(Nc3ccc4cc(N5CCN(C)CC5)cnc4c3)nc2n1-c1ccc(=O)n(C(C)C)n1 [Compound 219] | ≤ 30 | ≤ 1000

Structure (SMILES) | IC50 [1] [nM] | IC50 [2] [nM]
C=CCn1c(=O)c2cnc(Nc3ccc4c(c3)CC(N(C)C)C4)nc2n1-c1ccc(=O)n(C(C)C)n1 (stereo not shown) [Compound 220] | ≤ 30 | ≤ 1000
C=CCn1c(=O)c2cnc(Nc3ccc4c(c3)CNC4)nc2n1-c1ccc(=O)n(C(C)C)n1 [Compound 221] | ≤ 30 | 1000 to 3000
C=CCn1c(=O)c2cnc(Nc3ccc4c(c3)CN(C)C4)nc2n1-c1ccc(=O)n(C(C)C)n1 [Compound 222] | ≤ 30 | ≤ 1000
C=CCn1c(=O)c2cnc(Nc3ccc4c(c3)CNC4(C)C)nc2n1-c1ccc(=O)n(C(C)C)n1 [Compound 223] | ≤ 30 | ≤ 1000
C=CCn1c(=O)c2cnc(Nc3ccc4c(c3)CN(C)C4(C)C)nc2n1-c1ccc(=O)n(C(C)C)n1 [Compound 224] | ≤ 30 | ≤ 1000
C=CCn1c(=O)c2cnc(Nc3ccc4c(c3)CNCC4)nc2n1-c1ccc(=O)n(C(C)C)n1 [Compound 225] | ≤ 30 | ≤ 1000
C=CCn1c(=O)c2cnc(Nc3ccc4c(c3)CN(C)CC4)nc2n1-c1ccc(=O)n(C(C)C)n1 [Compound 226] | ≤ 30 | ≤ 1000
C=CCn1c(=O)c2cnc(Nc3ccc4c(c3)CN(C(C)C)CC4)nc2n1-c1ccc(=O)n(C(C)C)n1 [Compound 227] | ≤ 30 | ≤ 1000
C=CCn1c(=O)c2cnc(Nc3ccc4c(c3)CCNC4)nc2n1-c1ccc(=O)n(C(C)C)n1 [Compound 228] | ≤ 30 | ≤ 1000
C=CCn1c(=O)c2cnc(Nc3ccc4c(c3)CCN(C)C4)nc2n1-c1ccc(=O)n(C(C)C)n1 [Compound 229] | ≤ 30 | ≤ 1000
C=CCn1c(=O)c2cnc(Nc3ccc4c(c3)CCN(C(C)C)C4)nc2n1-c1ccc(=O)n(C(C)C)n1 [Compound 230] | ≤ 30 | ≤ 1000
C=CCn1c(=O)c2cnc(Nc3ccc4c(c3)CNCC43CC3)nc2n1-c1ccc(=O)n(C(C)C)n1 [Compound 231] | ≤ 30 | ≤ 1000
C=CCn1c(=O)c2cnc(Nc3ccc4c(c3)CN(C)CC43CC3)nc2n1-c1ccc(=O)n(C(C)C)n1 [Compound 232] | ≤ 30 | ≤ 1000
C=CCn1c(=O)c2cnc(Nc3ccc4c(c3)CN(C(C)C)CC43CC3)nc2n1-c1ccc(=O)n(C(C)C)n1 [Compound 233] | ≤ 30 | ≤ 1000
C=CCn1c(=O)c2cnc(Nc3ccc4c(c3)C3(CC3)CNC4)nc2n1-c1ccc(=O)n(C(C)C)n1 [Compound 234] | ≤ 30 | ≤ 1000
C=CCn1c(=O)c2cnc(Nc3ccc4c(c3)C3(CC3)CN(C)C4)nc2n1-c1ccc(=O)n(C(C)C)n1 [Compound 235] | ≤ 30 | ≤ 1000
C=CCn1c(=O)c2cnc(Nc3ccc4c(c3)C3(CC3)CN(C(C)C)C4)nc2n1-c1ccc(=O)n(C(C)C)n1 [Compound 236] | ≤ 30 | ≤ 1000
C=CCn1c(=O)c2cnc(Nc3ccc4c(c3)CNCC4(C)C)nc2n1-c1ccc(=O)n(C(C)C)n1 [Compound 237] | ≤ 30 | ≤ 1000
C=CCn1c(=O)c2cnc(Nc3ccc4c(c3)CN(C)CC4(C)C)nc2n1-c1ccc(=O)n(C(C)C)n1 [Compound 238] | ≤ 30 | ≤ 1000

Structure (SMILES) | IC50 [1] [nM] | IC50 [2] [nM]
C=CCn1c(=O)c2cnc(Nc3ccc4c(c3)CN(C(C)C)CC4(C)C)nc2n1-c1ccc(=O)n(C(C)C)n1 [Compound 239] | ≤ 30 | ≤ 1000
C=CCn1c(=O)c2cnc(Nc3ccc4c(c3)CNCC4(F)F)nc2n1-c1ccc(=O)n(C(C)C)n1 [Compound 240] | ≤ 30 | ≤ 1000
C=CCn1c(=O)c2cnc(Nc3ccc4c(c3)CN(C)CC4(F)F)nc2n1-c1ccc(=O)n(C(C)C)n1 [Compound 241] | ≤ 30 | ≤ 1000
C=CCn1c(=O)c2cnc(Nc3ccc4c(c3)CN(C(C)C)CC4(F)F)nc2n1-c1ccc(=O)n(C(C)C)n1 [Compound 242] | ≤ 30 | ≤ 1000
C=CCn1c(=O)c2cnc(Nc3ccc4c(c3)C(C)(C)CNC4)nc2n1-c1ccc(=O)n(C(C)C)n1 [Compound 243] | ≤ 30 | ≤ 1000
C=CCn1c(=O)c2cnc(Nc3ccc4c(c3)C(C)(C)CN(C)C4)nc2n1-c1ccc(=O)n(C(C)C)n1 [Compound 244] | ≤ 30 | ≤ 1000
C=CCn1c(=O)c2cnc(Nc3ccc4c(c3)C(C)(C)CN(C(C)C)C4)nc2n1-c1ccc(=O)n(C(C)C)n1 [Compound 245] | ≤ 30 | ≤ 1000
C=CCn1c(=O)c2cnc(Nc3ccc(N(C)CCN(C)C)nc3)nc2n1-c1ccc(=O)n(C(C)C)n1 [Compound 246] | ≤ 30 | ≤ 1000
C=CCn1c(=O)c2cnc(Nc3ccc(N4CCN(C)CC4)nc3)nc2n1-c1ccc(=O)n(C(C)C)n1 [Compound 247] | ≤ 30 | ≤ 1000
C=CCn1c(=O)c2cnc(Nc3ccc(N4CCN(C)CC4)cn3)nc2n1-c1ccc(=O)n(C(C)C)n1 [Compound 248] | ≤ 30 | ≤ 1000
C=CCn1c(=O)c2cnc(Nc3cc(OC)c(N4CCN(C)CC4)cn3)nc2n1-c1ccc(=O)n(C(C)C)n1 [Compound 249] | ≤ 30 | ≤ 1000
C=CCn1c(=O)c2cnc(Nc3cnn(C4CCN(C)CC4)c3)nc2n1-c1ccc(=O)n(C(C)C)n1 [Compound 250] | 30 to 100 | 1000 to 3000
C=CCn1c(=O)c2cnc(Nc3cnn(C4CCN(C(C)C)CC4)c3)nc2n1-c1ccc(=O)n(C(C)C)n1 [Compound 251] | 30 to 100 | 1000 to 3000
C=CCn1c(=O)c2cnc(Nc3cc(N4CCN(C)CC4)c4cc[nH]c4c3)nc2n1-c1ccc(=O)n(C(C)C)n1 [Compound 252] | ≤ 30 | ≤ 1000
C=CCn1c(=O)c2cnc(Nc3cc(N4CCN(C(C)C)CC4)c4cc[nH]c4c3)nc2n1-c1ccc(=O)n(C(C)C)n1 [Compound 253] | ≤ 30 | ≤ 1000
C=CCn1c(=O)c2cnc(Nc3cc(N4CCC(N(C)C)CC4)c4cc[nH]c4c3)nc2n1-c1ccc(=O)n(C(C)C)n1 [Compound 254] | ≤ 30 | ≤ 1000
C=CCn1c(=O)c2cnc(Nc3cc(N4CCN(C)CC4)c4ccn(C)c4c3)nc2n1-c1ccc(=O)n(C(C)C)n1 [Compound 255] | ≤ 30 | ≤ 1000
C=CCn1c(=O)c2cnc(Nc3cc(N4CCN(C(C)C)CC4)c4ccn(C)c4c3)nc2n1-c1ccc(=O)n(C(C)C)n1 [Compound 256] | ≤ 30 | ≤ 1000
